Experimental data taken from patent publication US10894052B2, “Heterocyclic inhibitors of ATR kinase” (Board of Regents, The University of Texas System, priority 2018, dated 2021).
pIC50: −log10 of the molar value.

Legend:
ATR/ATRIP complex = ATR/ATRIP complex (Homo sapiens (Human), UniProt Q13535); experiment: ATR/ATRIP enzymatic assay (Caliper-based); format: biochemical; details: ATR/ATRIP enzyme; FAM-labeled RAD17 peptide, ATP
Method: (§1) The ability of the compounds of Formula I to inhibit the catalytic activity of the ATR/ATRIP complex was measured in a Caliper-based assay, and in HT-29 cells in an Alphascreen assay, following the ATR-mediated phosphorylation of CHK1, described below.
Human full-length FLAG-TEV-ATR and His6-ATRIP were co-expressed in HEK293 cells. […] The sample was loaded into a column, and then washed with buffer A three times. Protein was subsequently eluted with 2 ml of buffer B (buffer A+200 μg/ml 3×FLAG peptide).
The ability of new chemical matter to inhibit the ATR catalytic activity in this ATR/ATRIP complex was assessed using a Caliper-based assay. A 2× enzyme solution (i.e., 4 nM enzyme) was prepared using 1× Kinase Reaction Buffer (25 mM HEPES pH 8, 0.0055% Brij-35, 10 mM MnCl2, and 1 mM DTT). […] 10 μL of the 2× enzyme solution was transferred to an assay plate containing 60 nL of test compound (from a 3× serial dilution) in 100% DMSO. Following a 30-min incubation at 28° C., 10 μL of the 2× peptide solution was then transferred to the same assay plate. The reaction incubated at 28° C. for 6 h. After adding 30 μL stop buffer (100 mM HEPES pH 7.5, 0.015% Brij-35, 0.2% Coating-3 Reagent (PerkinElmer, catalog #PN760050), and 50 mM EDTA), data were collected on a Caliper instrument. Conversion values were converted to inhibition values via the following equation: % inhibition=(max−conversion)/(max−min)*100, wherein “max” corresponds to the DMSO control, and “min” corresponds to the low control. IC50 values were calculated using the following equation in XLFit: Y=Bottom+(Top−Bottom)/1+(IC50/X)^HillSlope).

[1] = system: ATR-driven phosphorylation of Chk1 kinase at Serine 345 in HT-29 cells; experiment: pCHK1 cellular assay (CHK1 p-Ser345 AlphaScreen SureFire); format: cell-based; details: Homo sapiens; HT-29 colorectal adenocarcinoma cells; 4-nitroquinoline N-oxide 12 μM; read-out: Cell IC50 (pCHK1)
Method: as §1
Cellular IC50 for the inhibitors of ATR described herein were measured in HT-29 colorectal adenocarcinoma cells.
The microplate was incubated overnight (approximately 20 hours) at 37° C. with 5% CO2 and ambient O2. Stock solutions of the test compounds were prepared in 100% DMSO (Sigma, Catalog #D2650) and serially diluted 1:3 using 100% DMSO. Compounds were additionally diluted 1:33 in culture medium, and 10 μL/well were transferred to the tissue culture plate. Following the compound addition, the microplate was incubated at 37° C. for 90 minutes. […] The cells were then washed with PBS and lysed using 10 μL/well […]® Kit lysis buffer diluted to 1× in water (PerkinElmer Catalog #TGRCHK1S50K), with mixing on an orbital shaker at 500 rpm for 20 min at room temperature. Lysates were frozen at −20 OC overnight.
The pCHK1 ALPHASCREEN® signal was measured using an ENVISION® plate reader (PerkinElmer). IC50 values were calculated using a four-parameter logistic curve fit using Genedata Screener software. Percent of control for each compound concentration was calculated by the following formula: 100*(Compound−Min)/(Max−Min), where “Max” is the high control, DMSO, and “Min” is the low control, 5 μM ATR inhibitor.

Chain of ATR/ATRIP complex (Q13535 whole entry): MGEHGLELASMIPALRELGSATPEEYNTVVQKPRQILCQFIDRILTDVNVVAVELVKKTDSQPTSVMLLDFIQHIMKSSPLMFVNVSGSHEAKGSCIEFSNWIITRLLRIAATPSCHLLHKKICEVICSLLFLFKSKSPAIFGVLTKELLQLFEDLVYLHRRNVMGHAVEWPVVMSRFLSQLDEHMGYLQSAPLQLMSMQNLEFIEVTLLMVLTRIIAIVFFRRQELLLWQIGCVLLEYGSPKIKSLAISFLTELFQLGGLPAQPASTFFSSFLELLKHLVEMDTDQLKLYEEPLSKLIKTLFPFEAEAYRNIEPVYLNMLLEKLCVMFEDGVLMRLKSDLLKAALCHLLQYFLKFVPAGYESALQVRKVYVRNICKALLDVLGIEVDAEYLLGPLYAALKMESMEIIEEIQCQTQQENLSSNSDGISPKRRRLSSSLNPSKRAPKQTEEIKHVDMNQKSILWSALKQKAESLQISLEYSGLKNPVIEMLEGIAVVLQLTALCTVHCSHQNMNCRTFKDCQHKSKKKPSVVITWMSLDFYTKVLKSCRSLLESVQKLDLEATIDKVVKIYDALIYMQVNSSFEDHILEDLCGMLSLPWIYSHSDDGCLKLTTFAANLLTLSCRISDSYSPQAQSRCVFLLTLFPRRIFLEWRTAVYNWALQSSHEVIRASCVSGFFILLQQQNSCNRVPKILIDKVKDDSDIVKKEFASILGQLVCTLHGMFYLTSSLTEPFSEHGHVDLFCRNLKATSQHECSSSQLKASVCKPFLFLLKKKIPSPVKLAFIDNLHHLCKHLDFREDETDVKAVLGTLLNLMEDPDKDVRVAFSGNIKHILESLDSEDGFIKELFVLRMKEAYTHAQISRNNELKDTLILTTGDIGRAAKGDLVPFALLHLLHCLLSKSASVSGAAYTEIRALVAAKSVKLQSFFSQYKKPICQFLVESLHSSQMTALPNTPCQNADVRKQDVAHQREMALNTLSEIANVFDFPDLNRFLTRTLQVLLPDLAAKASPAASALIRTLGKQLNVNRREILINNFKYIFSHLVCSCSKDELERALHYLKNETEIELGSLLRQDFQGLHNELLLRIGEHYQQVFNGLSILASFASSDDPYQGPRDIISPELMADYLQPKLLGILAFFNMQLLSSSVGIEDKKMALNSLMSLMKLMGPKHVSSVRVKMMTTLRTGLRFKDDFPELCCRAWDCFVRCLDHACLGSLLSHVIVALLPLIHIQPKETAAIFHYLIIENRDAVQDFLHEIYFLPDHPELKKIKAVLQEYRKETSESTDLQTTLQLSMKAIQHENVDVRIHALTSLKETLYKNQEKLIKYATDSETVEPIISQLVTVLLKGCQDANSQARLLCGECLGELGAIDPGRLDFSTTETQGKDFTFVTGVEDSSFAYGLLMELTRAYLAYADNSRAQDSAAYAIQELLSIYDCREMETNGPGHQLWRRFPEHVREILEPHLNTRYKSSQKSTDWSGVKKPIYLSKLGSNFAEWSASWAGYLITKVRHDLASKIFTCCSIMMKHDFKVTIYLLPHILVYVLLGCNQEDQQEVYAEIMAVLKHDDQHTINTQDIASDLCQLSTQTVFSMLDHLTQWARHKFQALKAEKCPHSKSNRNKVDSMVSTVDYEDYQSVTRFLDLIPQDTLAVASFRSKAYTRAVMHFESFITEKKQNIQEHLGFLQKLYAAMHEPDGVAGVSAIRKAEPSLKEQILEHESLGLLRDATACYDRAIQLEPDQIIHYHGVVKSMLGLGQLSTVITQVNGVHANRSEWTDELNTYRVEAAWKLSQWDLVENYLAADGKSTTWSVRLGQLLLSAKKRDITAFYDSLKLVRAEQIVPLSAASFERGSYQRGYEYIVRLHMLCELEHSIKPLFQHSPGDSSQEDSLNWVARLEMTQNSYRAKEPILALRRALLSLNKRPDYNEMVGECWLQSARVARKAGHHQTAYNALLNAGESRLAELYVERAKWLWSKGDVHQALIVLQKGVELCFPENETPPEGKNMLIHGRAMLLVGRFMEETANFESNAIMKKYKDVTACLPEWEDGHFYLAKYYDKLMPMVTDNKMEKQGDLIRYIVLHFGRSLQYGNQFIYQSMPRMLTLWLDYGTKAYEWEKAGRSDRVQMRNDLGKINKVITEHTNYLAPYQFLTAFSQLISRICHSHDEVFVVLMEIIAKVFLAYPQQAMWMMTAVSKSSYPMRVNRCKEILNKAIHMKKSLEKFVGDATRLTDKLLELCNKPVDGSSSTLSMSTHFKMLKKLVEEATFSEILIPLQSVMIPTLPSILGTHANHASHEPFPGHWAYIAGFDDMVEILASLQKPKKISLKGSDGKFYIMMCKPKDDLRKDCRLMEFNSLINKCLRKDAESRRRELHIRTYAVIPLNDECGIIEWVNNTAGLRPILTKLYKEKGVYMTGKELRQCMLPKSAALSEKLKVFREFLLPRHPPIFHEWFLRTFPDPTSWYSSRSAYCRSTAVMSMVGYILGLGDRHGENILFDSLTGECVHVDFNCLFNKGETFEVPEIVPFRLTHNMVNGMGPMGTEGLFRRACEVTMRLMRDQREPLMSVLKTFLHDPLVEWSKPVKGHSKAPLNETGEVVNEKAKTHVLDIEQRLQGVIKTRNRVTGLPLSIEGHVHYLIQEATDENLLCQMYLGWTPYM
Chain of ATR/ATRIP complex (Q8WXE1 whole entry partner): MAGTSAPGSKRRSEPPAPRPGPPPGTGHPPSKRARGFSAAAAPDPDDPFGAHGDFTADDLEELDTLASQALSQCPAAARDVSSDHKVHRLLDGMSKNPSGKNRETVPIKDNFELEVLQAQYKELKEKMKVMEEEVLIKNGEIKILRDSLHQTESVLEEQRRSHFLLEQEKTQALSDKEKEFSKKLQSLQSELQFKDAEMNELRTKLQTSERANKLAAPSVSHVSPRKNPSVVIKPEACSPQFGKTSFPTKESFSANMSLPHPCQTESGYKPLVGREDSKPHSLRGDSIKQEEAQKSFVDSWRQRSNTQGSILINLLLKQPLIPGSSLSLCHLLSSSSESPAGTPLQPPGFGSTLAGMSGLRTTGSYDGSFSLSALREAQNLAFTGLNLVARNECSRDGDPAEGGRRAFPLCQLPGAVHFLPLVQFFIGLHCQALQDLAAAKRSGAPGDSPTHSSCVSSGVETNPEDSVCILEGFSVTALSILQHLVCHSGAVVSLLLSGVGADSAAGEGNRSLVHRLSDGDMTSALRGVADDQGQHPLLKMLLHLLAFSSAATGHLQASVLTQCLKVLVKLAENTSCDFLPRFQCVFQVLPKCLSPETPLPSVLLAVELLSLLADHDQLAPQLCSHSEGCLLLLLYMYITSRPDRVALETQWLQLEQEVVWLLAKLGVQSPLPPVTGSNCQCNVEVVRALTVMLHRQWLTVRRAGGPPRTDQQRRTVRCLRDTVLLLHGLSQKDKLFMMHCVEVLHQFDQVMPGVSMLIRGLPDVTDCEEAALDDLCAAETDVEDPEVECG

Row | SMILES | pIC50 (ATR/ATRIP complex) | pIC50 [1]
1 | C[C@@H]1COCCN1c1cc(N=S2(=O)CCCC2)nc(-c2ccnc3[nH]ccc23)c1 [Example 26, (R)-1-((4-(3-methylmorpholino)-6-(1H-pyrrolo[2,3-b]pyridin-4-yl)pyridin-2-yl)imino)tetrahydro-1H-1-λ^6-thiophene 1-oxide] | 8.10 | 6.15
2 | C[C@@H]1COCCN1c1cc(N=S(C)(C)=O)nc(-c2cc(Cl)nc3[nH]ccc23)c1 [Example 27, (R)-((6-(6-chloro-1H-pyrrolo[2,3-b]pyridin-4-yl)-4-(3-methylmorpholino)pyridin-2-yl)imino)dimethyl-λ^6-sulfanone] | 7.52 | 6.18
3 | Cc1nc2ccccc2n1-c1cc(N2CCOC[C@H]2C)cc(N=S(C)(C)=O)n1 [Example 28, (R)-dimethyl((6-(2-methyl-1H-benzo[d]imidazol-1-yl)-4-(3-methylmorpholino)pyridin-2-yl)imino)-λ^6-sulfanone] | 7.62 | 5.00
4 | C[C@@H]1COCCN1c1cc(N=S(C)(C)=O)nc(-c2cc(F)cc3[nH]ccc23)c1 [Example 32, (R)-((6-(6-fluoro-1H-indol-4-yl)-4-(3-methylmorpholino)pyridin-2-yl)imino)dimethyl-λ^6-sulfanone] | 8.40 | 6.71

The next lines start with the values.

Row | pIC50 (ATR/ATRIP complex) | pIC50 [1] | SMILES
5 | 5.46 | 5.51 | C[C@@H]1COCCN1c1cc(N=S(C)(C)=O)nc(-c2nccn2C)c1 [Example 31, (R)-dimethyl((6-(1-methyl-1H-imidazol-2-yl)-4-(3-methylmorpholino)pyridin-2-yl)imino)-λ^6-sulfanone]
6 | 5.73 | 6.21 | C[C@@H]1COCCN1c1cc(N=S(C)(C)=O)nc(-c2ccnn2C)c1 [Example 33, (R)-dimethyl((6-(1-methyl-1H-pyrazol-5-yl)-4-(3-methylmorpholino)pyridin-2-yl)imino)-λ^6-sulfanone]
7 | 5.46 | 5.00 | C[C@@H]1COCCN1c1cc(N=S(C)(C)=O)nc(-c2cnn(C)c2)c1 [Example 34, (R)-dimethyl((6-(1-methyl-1H-pyrazol-4-yl)-4-(3-methylmorpholino)pyridin-2-yl)imino)-λ^6-sulfanone]
8 | 5.46 | 5.51 | Cc1nccn1-c1cc(N2CCOC[C@H]2C)cc(N=S(C)(C)=O)n1 [Example 39, (R)-dimethyl((6-(2-methyl-1H-imidazol-1-yl)-4-(3-methylmorpholino)pyridin-2-yl)imino)-λ^6-sulfanone]
